# Source: patent US20260130879A1 (IMMUNIC AG, priority 2023, published 2026)
# Target: human Nurr1 (Homo sapiens, UniProt P43354)
# Assay: Hybrid Gal4-Nurr1 reporter gene assay in HEK293T cells
# Settings: not given
# Chain of human Nurr1 (P43354 360-595 limits assumed): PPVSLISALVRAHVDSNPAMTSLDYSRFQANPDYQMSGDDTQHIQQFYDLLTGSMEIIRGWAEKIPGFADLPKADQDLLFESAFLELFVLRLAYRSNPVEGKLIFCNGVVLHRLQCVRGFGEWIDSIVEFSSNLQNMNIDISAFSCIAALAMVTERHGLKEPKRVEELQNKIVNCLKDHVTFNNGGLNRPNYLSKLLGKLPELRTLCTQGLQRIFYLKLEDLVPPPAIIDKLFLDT
Compound,EC50 [µM],Nurr1 agonism max. fold activation (range)
[2H]c1cc([2H])c(-c2ccc(NC(=O)C3=C(C(=O)O)CCC3)c(F)c2)c([2H])c1O [2/4],0.1 to 1,+ (+: ≥1.3-fold to <2-fold)
[2H]C([2H])([2H])Oc1cccc(-c2cc(F)c(NC(=O)C3=C(C(=O)O)CCC3)c(OC([2H])([2H])[2H])c2)c1 [2/31],0.1 to 1,+ (+: ≥1.3-fold to <2-fold)
[2H]C([2H])([2H])Oc1cccc(-c2c(F)c(F)c(NC(=O)C3=C(C(=O)O)CCC3)c(F)c2F)c1 [2/10],< 0.1,+ (+: ≥1.3-fold to <2-fold)
[2H]C([2H])([2H])Oc1cccc(-c2cc(F)c(NC(=O)C3=C(C(=O)NS(=O)(=O)C4(C)CC4)CCC3)c(F)c2)c1 [2/21],1 to 10,++ (++: ≥2-fold to <3-fold)
[2H]C([2H])([2H])Oc1cccc(-c2cc(F)c(NC(=O)C3=C(C(=O)NS(=O)(=O)C(F)F)CCC3)c(F)c2)c1 [2/22],1 to 10,++ (++: ≥2-fold to <3-fold)
[2H]C([2H])([2H])Oc1cccc(-c2ccc(NC(=O)C3=C(C(=O)O)CCC3)c3cnccc23)c1 [2/13],1 to 10,+++ (+++: ≥3-fold)
O=C(O)C1=C(C(=O)Nc2c(F)cc(-c3cccc4c3OCO4)cc2F)CCC1 [reference compound],> 10,
[N-]=[N+]=NCCOc1cccc(-c2ccc(NC(=O)C3=C(C(=O)O)CCC3)c(F)c2)c1 [4/1],< 0.1,+++ (+++: ≥3-fold)
[2H]C([2H])([2H])Oc1cccc(-c2cc(F)c(NC(=O)C3=C(C(=O)NOCCO)CCC3)c(F)c2)c1 [2/24],1 to 10,+ (+: ≥1.3-fold to <2-fold)
[2H]C([2H])([2H])Oc1cccc(-c2cc(F)c(NC(=O)C3=C(/C(N)=N/O)CCC3)c(F)c2)c1 [2/20],0.1 to 1,++ (++: ≥2-fold to <3-fold)
[2H]C([2H])([2H])Oc1cccc(-c2cc(F)c(NC(=O)C3=C(C(=O)NOCC)CCC3)c(F)c2)c1 [2/18],1 to 10,++ (++: ≥2-fold to <3-fold)

# Same assay, conditions: 0.3 μM
row,Compound,Fold Activation @ 0.3 μM
1,[2H]c1cc([2H])c(-c2c(F)c(F)c(NC(=O)c3ccsc3C(=O)O)c(F)c2F)c([2H])c1OC(F)(F)F [2/25],+++ (+++: ≥3-fold)

# Same assay, conditions: 3 μM
row,Compound,Fold Activation @ 3 μM
1,[2H]C([2H])([2H])Oc1cccc(-c2c(F)c(F)c(NC(=O)c3ccsc3C(=O)O)c(F)c2F)c1 [6/2],++ (++: ≥2-fold to <3-fold)
2,[2H]C([2H])([2H])Oc1cccc(-c2cc(F)c(NC(=O)C3=C(C(=O)NOC)CCC3)c(C#N)c2)c1 [2/29],+ (+: ≥1.3-fold to <2-fold)
3,[2H]C([2H])([2H])Oc1cccc(-c2c(F)cc(NC(=O)c3ccsc3C(=O)O)cc2F)c1 [6/8],+++ (+++: ≥3-fold)
4,[2H]C([2H])([2H])Oc1cccc(-c2c(F)c(F)c(NC(=O)c3cscc3C(=O)O)c(F)c2F)c1 [6/3],++ (++: ≥2-fold to <3-fold)
5,COc1cccc(-c2ccc(NC(=O)C3=C(C(=O)NO)CCC3)c(F)c2)c1 [6/10],++ (++: ≥2-fold to <3-fold)
6,[2H]C([2H])([2H])Oc1cccc(-c2c(F)c(F)c(NC(=O)C3=C(C(=O)O)CC(F)(F)C3)c(F)c2F)c1 [6/1],++ (++: ≥2-fold to <3-fold)
7,[2H]C([2H])([2H])Oc1ccccc1-c1c(F)c(F)c(NC(=O)C2=C(C(=O)O)CSC2)c(F)c1F [6/7],++ (++: ≥2-fold to <3-fold)
8,[2H]C([2H])([2H])Oc1cccc(-c2c(F)c(F)c(NC(=O)c3ccsc3C(=O)NCC(F)(F)F)c(F)c2F)c1 [6/44],+ (+: ≥1.3-fold to <2-fold)
9,[2H]c1cc([2H])c(-c2c(F)c(F)c(NC(=O)c3ccsc3C(=O)O)c(F)c2F)c([2H])c1OC(F)(F)F [2/25],++ (++: ≥2-fold to <3-fold)
10,[2H]C([2H])([2H])Oc1cccc(-c2cc(F)c(NC(=O)c3ccsc3C(=O)O)c(F)c2)c1 [2/26],+ (+: ≥1.3-fold to <2-fold)
11,[2H]C([2H])([2H])Oc1ccccc1-c1c(F)c(F)c(NC(=O)C2=C(C(=O)O)CCC2)c(F)c1F [2/27],+++ (+++: ≥3-fold)
